Broadly, the IC50 is the concentration that gives 50% inhibition.

The test system of assay [1] is HL-60. Description: Cytotoxicity against Homo sapiens (human) HL60 cells assessed as growth inhibition after 48 hr by MTT assay. The assay is classed as functional, cell-based. To be noted: HL-60, 48 h. Background: Tetrazolium assays rely on reduction of a dye to a coloured formazan, in cell work by metabolically active cells.
The test system of assay [2] is Staphylococcus aureus. Nature of the assay: Antibacterial activity against Staphylococcus aureus 1199B overexpressing NorA assessed as reduction of ciprofloxacin MIC at MEC after 18 hr by broth checkerboard method relative to control. The assay is classed as functional.
The subject of assay [3] is Staphylococcus aureus. Nature of the assay: Antibacterial activity against Staphylococcus aureus 1199B overexpressing NorA assessed as growth inhibition after 18 hr by broth checkerboard method. The assay is classed as functional. The conditions noted are these: read-out: MEC.
The test system of assay [4] is Radical scavenging activity. Nature of the assay: Antioxidant activity assessed as DPPH radical scavenging activity after 20 min by microplate ELISA reader analysis. It is filed as functional. Background: Loss of DPPH colour is used to gauge radical scavenging.
Assay [5] deals with Rattus norvegicus. Nature of the assay: Anti-inflammatory activity in Wistar Rattus norvegicus (rat) assessed as inhibition of carrageenan-induced paw edema at 100 mg/kg, po administered 45 min prior to carrageenan-challenge measured 45 min to 4 hr post carrageenan-challenge relative to control. It is filed as functional. On the technique in general: The carrageenan paw model is a standard test of acute inflammation.

Assay [6] relates to HeLa. Nature of the assay: Cytotoxicity against Homo sapiens (human) HeLa cells assessed as growth inhibition after 48 hr by MTT assay. The assay is classed as functional, cell-based.
Assay [7] relates to MOLT-4. Nature of the assay: Cytotoxicity against Homo sapiens (human) MOLT4 cells assessed as growth inhibition after 48 hr by MTT assay. It is filed as functional, cell-based. To be noted: MOLT-4, 48 h.
Assay [8] has as its system PC-3. Nature of the assay: Cytotoxicity against Homo sapiens (human) PC3 cells assessed as growth inhibition after 48 hr by MTT assay. It is filed as functional, cell-based. The conditions noted are these: PC-3, 48 h.

Active and inactive are the calls of the source. The calls are words filed in the database; no cut-off is given here.

As for `O=C(/C=C/c1ccc(Cl)cc1)c1ccco1`, the IC50 amounted to 19 µM in assay [1], 38 µM in assay [6], 23 µM in assay [7] and 29 µM in assay [8]. Besides, the “fold change (FC)” value in assay [2] turned out to be 0. Also, in assay [3], the minimal effective concentration was over 50 µg/mL. The outcome in assay [4] was inactive. Also, in assay [5], the inhibition result is “inactive”.
Consider `COc1cccc(/C=C/C(=O)c2ccc[nH]2)c1`, for which the IC50 was 16 µM in assay [1], 30 µM in assay [6], 28 µM in assay [7] and 24 µM in assay [8]. Moreover, the “fold change (FC)” value in assay [2] was 0. In assay [3], the minimal effective concentration is over 50 µg/mL. The result in assay [4] was inactive. Besides, the inhibition entry in assay [5] was “inactive”.
Consider `O=C(/C=C/c1cccc([N+](=O)[O-])c1)c1ccc[nH]1`, for which the IC50 in assay [1] worked out at 20 µM; in assay [6], 32 µM; in assay [7] it was 22 µM; in assay [8], 23 µM. In addition, the “fold change (FC)” value in assay [2] is given as 0. Also, the minimal effective concentration in assay [3] is over 50 µg/mL. For the same compound, the result in assay [4] was inactive. Further, in assay [5], the inhibition result was “inactive”.
In the case of `CN(C)c1ccc(/C=C/C(=O)c2ccco2)cc1`, the IC50 turned out to be 12 µM in assay [1], 20 µM in assay [6], 12 µM in assay [7] and 13 µM in assay [8]. In addition, the “fold change (FC)” value in assay [2] is on record as 4. Also, the minimal effective concentration in assay [3] came out at 12.5 µg/mL. Moreover, the result in assay [4] was inactive. For the same compound, the inhibition entry in assay [5] was “inactive”.
As to `O=C(/C=C/c1cccc([N+](=O)[O-])c1)c1ccco1`, the IC50 in assay [1] worked out at 14 µM; in assay [6] it was 22 µM; in assay [7] it was 18 µM; in assay [8] it was 14 µM. Besides, the “fold change (FC)” value in assay [2] turned out to be 0. In addition, the minimal effective concentration in assay [3] is over 50 µg/mL. Further, the outcome in assay [4] was inactive. Further, the inhibition entry in assay [5] is “inactive”.
In the case of `O=C(/C=C/c1ccc(Br)cc1)c1ccco1`, the IC50 is 48 µM in assay [1], over 100 µM in assay [6], 62 µM in assay [7] and 58 µM in assay [8]. For the same compound, the “fold change (FC)” value in assay [2] is 2. Further, the minimal effective concentration in assay [3] came to 25 µg/mL. Also, in assay [4], the result was inactive. The inhibition entry in assay [5] was “inactive”.
Consider `O=C(/C=C/c1ccc(Cl)cc1Cl)c1ccc[nH]1`, for which the IC50 in assay [1] is 22 µM; in assay [6], 26 µM; in assay [7] it was 13 µM; in assay [8], 22 µM. In assay [2], the “fold change (FC)” value amounted to 0. The minimal effective concentration in assay [3] is over 50 µg/mL. Besides, in assay [4], the result was inactive. The inhibition entry in assay [5] is “inactive”.
Regarding `O=C(/C=C/c1ccccc1)c1ccc[nH]1`, the IC50 in assay [1], in assay [6], in assay [7] and in assay [8] was over 100 µM in each case. Further, the “fold change (FC)” value in assay [2] was 0. Further, in assay [3], the minimal effective concentration was over 50 µg/mL. In addition, the outcome in assay [4] was inactive. In addition, the inhibition result in assay [5] was “inactive”.
Take `O=C(/C=C/c1ccc(Br)cc1)c1ccc[nH]1`: the IC50 in assay [1] was 32 µM; in assay [6] it was over 100 µM; in assay [7] it was 49 µM; in assay [8], 44 µM. The “fold change (FC)” value in assay [2] came to 0. Besides, the minimal effective concentration in assay [3] is over 50 µg/mL. Also, the outcome in assay [4] was inactive. Moreover, the inhibition entry in assay [5] is “inactive”.
In the case of `O=C(/C=C/c1ccccc1)c1ccco1`, the IC50 in assay [1] is 100 µM; in assay [6], over 100 µM; in assay [7] it was over 100 µM; in assay [8], over 100 µM. In assay [2], the “fold change (FC)” value was 0. The minimal effective concentration in assay [3] is over 50 µg/mL. Moreover, in assay [4], the result was inactive. Further, in assay [5], the inhibition entry is “inactive”.
For `O=C(/C=C/c1ccccc1Cl)c1ccco1`, the IC50 was 12 µM in assay [1], 26 µM in assay [6], 25 µM in assay [7] and 14 µM in assay [8]. For the same compound, the “fold change (FC)” value in assay [2] came to 0. In assay [3], the minimal effective concentration was over 50 µg/mL. For the same compound, in assay [4], the result was inactive. The inhibition entry in assay [5] is “inactive”.

The values above are taken from ChEMBL document CHEMBL3044639, “Synthesis and biologic activities of some novel heterocyclic chalcone derivatives” (Med Chem Res, 2013).
